Measured values published in US4317881A (priority 1979, dated 1982).

Tested on: not listed separately
Test: Inactivation of the enzyme by pH and temperature, with and without calcium
Conditions: 10^-2 M calcium chloride, 15 min treatment (FIG. 6)
For `[Ca+2].[Cl-].[Cl-]` [CaCl2, calcium chloride], the “Rise of the temperature at which the enzyme is still stable, versus absence of the metal ion” value was ~5 °C.

Same assay, conditions: 10^-2 M-10^-3 M calcium chloride
In the case of `[Ca+2].[Cl-].[Cl-]` [CaCl2, calcium chloride], the “Thermostability of the enzyme on addition of the salt” value is reported as “enhanced”.

Tested on: cyclodextrin glycosyltransferase (E.C. 2.4.1.19)
Test: not given
Format: biochemical, Micrococcus varians M 849
Conditions: pH 7
Compound `[Cl-].[Cl-].[Co+2]` [CoCl2] has a Residual activity of 88%. `c1cnc2c(c1)ccc1cccnc12` [O-Phenanthroline] gave a Residual activity of 100%. For HgCl2, the “Inhibition of the enzyme (in words)” value was “inhibited” and the Residual activity was 5%. In the case of `O=S(=O)([O-])[O-].[Mg+2]` [MgSO4], the Residual activity is reported as 100%. In the case of `O=S(=O)([O-])[O-].[Fe+2]` [FeSO4], the “Inhibition of the enzyme (in words)” value is reported as “inhibited” and the Residual activity is reported as 10%. With `[Cl-].[Cl-].[Mg+2]` [MgCl2] the Residual activity was 100%. With `O=C(O)c1cc[c]([Hg][Cl])cc1` [p-Chloromercuribenzoic acid] the Residual activity was 95%. `O=C(O)CI` [Monoiodoacetic acid] gave a Residual activity of 97%. In the case of `O=C(O)CN(CCN(CC(=O)O)CC(=O)O)CC(=O)O` [Ethylenediaminetetraacetic acid], the “Inhibition of the enzyme (in words)” value is reported as “inhibited” and the Residual activity is reported as 2%. In the case of `O=S(=O)([O-])[O-].[Cu+2]` [CuSO4], the “Inhibition of the enzyme (in words)” value is reported as “inhibited” and the Residual activity is reported as 6%. Compound `[Cl-].[Cl-].[Zn+2]` [ZnCl2] has a Residual activity of 100%. `[Ca+2].[Cl-].[Cl-]` [CaCl2, calcium chloride] gave a Residual activity of 100%.
